This test deals with patients with lower urinary tract symptoms. The test can be described thus: Clinical test (12 week study) to patients suffering from lower urinary tract symptoms: pain scores. The test is classed as in vivo. The protocol: Clinical Test (12 Week Study) to Patients Suffering from Lower Urinary Tract Symptoms A clinical study was conducted in patients with lower urinary tract symptoms under the conditions shown below. Subjects: Eighteen patients diagnosed to have urinary dysfunction without accompanying obvious organic or neurological abnormality in lower urinary tract. Study drug and the method of administration: Until Week 4, capsules each containing 0.2 mg tamsulosin hydrochloride were orally administered, one capsule/time/day, after breakfast. In Week 4, the doses for later than Week 4 were determined by referring to the Table below, and the doses determined were orally administered once daily after breakfast. <Criterion of Dose after 4 Weeks> [table] Study period: 12 weeks Observed items: Evaluations and measurements were made for the following items before and after the administration. (2) Pains The pain scores shown below were evaluated before administration, and 4 and 12 weeks after administration. <1> Hypogastric/perineal pain “How strong is hypogastric/perineal pain?” • 0: No pain • 1: Slightly painful • 2: Painful • 3: Quite painful • 4: Very painful <2> Lower backache “How strong is lower backache?” • 0: No pain • 1: Slightly painful • 2: Painful • 3: Quite painful • 4: Very painful

Results on one compound are retold here after patent US20060063842A1, “Hypogastric and/or perineal pain-relieving agent” (priority 2002, published 2006).

Where a name gives a salt, the structure may show the parent alone.

In the case of `CCOc1ccccc1OCCN[C@H](C)Cc1ccc(OC)c(S(N)(=O)=O)c1` [tamsulosin hydrochloride, (R)(−)-5-[2-[[2-(o-ethoxyphenoxy)ethyl]amino]propyl]-2-methoxybenzenesulfonamide], the “improvement of hypogastric/perineal pain or lower backache in patients with urinary dysfunction (overall conclusion)” value (12 week clinical study, 18 patients, oral 0.2 or 0.4 mg/day) is reported as “effective”. Further, the “number of patients with hypogastric/perineal pain improved to score 0 (no pain)” value (of 7 patients with score 1 (slightly painful) before administration, evaluation in Weeks 4 and 12, oral 0.2 or 0.4 mg/day once daily after breakfast) was determined as 6 patients. Also, under “of 7 patients with score 1 before administration, evaluation in Weeks 4 and 12, oral 0.2 or 0.4 mg/day”, the “number of patients with hypogastric/perineal pain unchanged (score 1, slightly painful)” value was determined as 1 patient. Moreover, the “lower backache score after administration” value (the only 1 patient with lower backache (score 1, slightly painful) before administration, evaluation in Weeks 4 and 12, oral 0.2 or 0.4 mg/day) is on record as “improved to score 0 (no pain)”.
